The source of these data is US7566712B2, “Biaryl piperazinyl-pyridine analogues” (Neurogen Corporation, priority 2003, dated 2009).

One may read the IC50 as the concentration that inhibits the measured activity by half.

One test deals with T1, human capsaicin receptor (Homo sapiens, UniProt Q8NER1).
T1 construct: pBK-CMV expression construct encoding the full length human capsaicin receptor; expressed in transfected cells
T1 sequence (Q8NER1 whole entry): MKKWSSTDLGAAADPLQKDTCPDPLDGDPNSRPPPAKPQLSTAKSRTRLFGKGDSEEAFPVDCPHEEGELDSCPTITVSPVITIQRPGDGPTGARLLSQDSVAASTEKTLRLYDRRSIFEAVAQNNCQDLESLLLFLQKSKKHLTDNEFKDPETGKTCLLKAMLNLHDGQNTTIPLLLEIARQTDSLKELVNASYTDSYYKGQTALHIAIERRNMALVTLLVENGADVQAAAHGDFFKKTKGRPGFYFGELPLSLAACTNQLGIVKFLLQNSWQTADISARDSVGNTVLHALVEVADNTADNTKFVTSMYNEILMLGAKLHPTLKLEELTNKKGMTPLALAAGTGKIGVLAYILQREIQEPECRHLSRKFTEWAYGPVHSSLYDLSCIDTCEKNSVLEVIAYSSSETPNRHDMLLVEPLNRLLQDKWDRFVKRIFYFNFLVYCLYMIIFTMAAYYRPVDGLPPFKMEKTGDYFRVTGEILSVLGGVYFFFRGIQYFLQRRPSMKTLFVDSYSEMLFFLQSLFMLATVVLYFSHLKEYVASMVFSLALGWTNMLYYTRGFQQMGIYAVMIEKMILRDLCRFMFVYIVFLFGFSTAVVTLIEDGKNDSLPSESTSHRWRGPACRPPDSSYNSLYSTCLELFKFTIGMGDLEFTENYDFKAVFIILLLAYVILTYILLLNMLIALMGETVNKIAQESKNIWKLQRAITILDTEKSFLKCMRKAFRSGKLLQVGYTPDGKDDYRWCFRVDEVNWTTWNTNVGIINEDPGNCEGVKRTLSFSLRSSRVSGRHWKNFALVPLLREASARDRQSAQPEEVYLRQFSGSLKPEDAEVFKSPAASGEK
Put plainly: Calcium mobilization assay, determination of antagonist activity (Example 6). The format is cell-based. The following applies: Table II; IC50 determined as described in Example 6. In short, it runs like this: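 HEK293 clonal lines stably expressing full-length human capsaicin receptor, loaded with Fluo-3 AM in KRH buffer pH 7.4, 1–2 h at 37 °C. Compounds (1–5 μM final) preincubated 0.5–6 h at room temperature, then capsaicin at its EC50 added. FLIPR/Fluoroskan calcium signal; IC50 as 50% decrease of capsaicin response.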
Consider `Fc1ccc(-c2cc(N3CCN(c4ncccc4C(F)(F)F)CC3)nc(OC3CCOCC3)n2)cc1Cl` [Example 557, 4-(3-chloro-4-fluorophenyl)-2-(tetrahydro-2H-pyran-4-yloxy)-6-{4-[3-(trifluoromethyl)pyridin-2-yl]piperazin-1-yl}pyrimidane], for which the concentration for half-maximal inhibition (IC50) was no more than 1000 nM. As to `C=CCN1CCN(c2nc(-c3ccc(F)c(C)c3)nc(N3CCN(c4ncccc4C(F)(F)F)CC3)n2)CC1` [Example 450, 2-(4-allylpiperazin-1-yl)-4-(4-fluoro-3-methylphenyl)-6-{4-[3-(trifluoromethyl)pyridin-2-yl]piperazin-1-yl}-1,3,5-triazine], the IC50 is no more than 1000 nM. The same measure, in the same setting: the value for `Fc1ccc(-c2nc(N3CCOCC3)nc(N3CCN(c4ncccc4C(F)(F)F)CC3)n2)cc1Cl` [Example 426, 2-(3-chioro-4-fluorophenyl)-4-morpholin-4-yl-6-{4-[3-(trifluoromethyl)pyridin-2-yl]piperazin-1-yl}-1,3,5-triazine] was no more than 1000 nM; that for `Cc1ccc(-c2cc(N3CCN(c4ncccc4Cl)C[C@H]3C)nc(N3CCOCC3)n2)cc1F` [Example 496, 4-[4-[(2R)-4-(3-chloropyridin-2-yl)-2-methylpiperazin-1-yl]-6-(3-fluoro-4-methylphenyl)pyrimidin-2-yl]morpholine] was no more than 1000 nM. On to `Cc1cccnc1N1CCN(c2cc(-c3ccc(OC(F)(F)F)cc3)nc(N3CCOCC3)n2)[C@H](C)C1` [Example 527, 4{4[(2R)-2-methyl-4-(3-methylpyridin-2-yl)piperazin-1-yl]-6-[4-(trifluoromethoxy)phenyl]pyrimidin-2-yl}morpholine], for which the IC50 is no more than 1000 nM. Same read-out and setting: the value for `CSc1cccc(-c2cc(N3CCN(c4ncccc4C)C[C@H]3C)nc(N3CCOCC3)n2)c1` [Example 537, 4-{4-[(2R)-2-methyl-4-(3-methylpyridin-2-yl)piperazin-1-yl]-6-[3-(methylthio)phenyl]pyrimidin-2-yl}morpholine] was no more than 1000 nM. With `CCCc1ccc(-c2cc(N3CCN(c4ncccc4Cl)C[C@H]3C)nc(N3CCOCC3)n2)cc1` [Example 513, 4-[4-[(2R)-4-(3-chloropyridin-2-yl)-2-methylpiperazin-1-yl]-6-(4-propylphenyl)pyrimidin-2-yl]morpholine], the IC50 was no more than 1000 nM. Same read-out and setting: as for `CCOc1cccc(-c2cc(N3CCN(c4ncccc4C(F)(F)F)C[C@H]3C)nc(N3CCOCC3)n2)c1` [Example 530, 4-(4-(3-ethoxyphenyl)-6-{(2R)-2-methyl-4-[3-(trifluoromethyl)pyridin-2-yl]piperazin-1-yl}pyrimidin-2-yl)morpholine], the figure is no more than 1000 nM.

Still in this test, the particulars now being: Table II; IC50 determined as described in Example 6 (antagonist activity, calcium mobilization).
Turning to `COc1ncc(Cl)c(N2CCN(c3cc(-c4ccc(F)cc4)nc(N4CCOCC4)n3)[C@H](C)C2)n1` [Example 972, 4-[4-[(2R)-4-(5-chloro-2-methoxypyrimidin-4-yl)-2-methylpiperazin-1-yl]-6-(4-fluorophenyl)pyrimidin-2-yl]morpholine], the IC50 is no more than 1000 nM. On the same count and under the same terms, as for `C[C@@H]1CN(c2ncccc2Cl)CCN1c1cc(-c2ccc(F)c(Cl)c2)nc(N2CCOC[C@@H]2C)n1` [Example 1000, (3S)-4-{4-(3-ohloro-4-fluorophenyl)-6-[(2R)-4-(3-chloropyridin-2-yl)-2-methylpiperazin-1-yl]pyrimidin-2-yl}-3-methylmorpholine], the figure is no more than 1000 nM.

Staying with this test, now noted: Table II; determined as described in Example 6 (antagonist activity); "*" = 1 micromolar or less.
As to `O=C(O)C1CCN(c2nc(-c3ccc(F)c(Cl)c3)cc(N3CCN(c4ncccc4C(F)(F)F)CC3)n2)CC1` [Example 799, 1-(4-(3-chloro-4-fluorophenyl)-6-{4-[3-(trifluoromethyl)pyridin-2-yl]piperazin-1-yl}pyrimidin-2-yl)piperidine-4-carboxylic acid], the IC50 is no more than 1000 nM. On the same count and under the same terms, the value for `C[C@@H]1CCCN1c1nc(-c2ccc(Cl)c(F)c2)cc(N2CCN(c3ncccc3Cl)C[C@@H]2C)n1` [Example 958, 4-(4-chloro-3-fluorophenyl)-6-[(2S)-4-(3-chloropyridin-2-yl)-2-methylpiperazin-1-yl]-2-[(2R)-2-methylpyrrolidin-1-yl]pyrimidine] was no more than 1000 nM. Same read-out and setting: as for `CCCN1CCN(c2nc(-c3cncc(Cl)c3)cc(N3CCN(c4ncccc4Cl)C[C@H]3C)n2)CC1` [Example 838, 4-(5-chloropyridin-3-yl)-6-[(2R)-4-(3-chloropyridin-2-yl)-2-methylpiperazin-1-yl]-2-(4-propylpiperazin-1-yl)pyrimidine], the figure is no more than 1000 nM; as for `CC1CCCN1c1nc(-c2ccc(F)c(Cl)c2)cc(N2CCN(c3nccnc3Cl)C[C@H]2C)n1` (stereo partly shown) [Example 908], no more than 1000 nM; as for `CCCN1CCN(c2nc(-c3ccc(F)c(F)c3)cc(N3CCN(c4ncccc4Cl)C[C@H]3C)n2)CC1` [Example 788, 4-[(2R)-4-(3-chloropyridin-2-yl)-2-methylpiperazin-1-yl]-6-(3,4-difluorophenyl)-2-(4-propylpiperazin-1-yl)pyrimidine], no more than 1000 nM. Still for that read-out and setting: the value for `O=C(O)CCc1cccc(-c2cc(N3CCN(c4ncccc4C(F)(F)F)CC3)nc(N3CCOCC3)n2)c1` [Example 848, 3-(3-(2-morpholin-4-yl-6-{4-[3-(trifluoromethyl)pyridin-2-yl]piperazin-1-yl}pyrimidin-4-yl)phenyl]propanoic acid] was no more than 1000 nM; that for `O=C(O)C1CCCCN1c1nc(-c2ccc(F)c(Cl)c2)cc(N2CCN(c3ncccc3C(F)(F)F)CC2)n1` (stereo not shown) [Example 832, 1-(4-(3-chloro-4-fluorophenyl)-6-{4-[3-(trifluoromethyl)pyridin-2-yl]piperazin-1-yl}pyrimidin-2-yl)piperidine-2-carboxylic acid] was no more than 1000 nM. On to `CC1CCCN1c1nc(-c2ccc(F)c(Cl)c2)cc(N2CCN(c3ncccc3Cl)CC2=O)n1` (stereo not shown) [Example 853, 1-[6-(3-chloro-4-fluorophenyl)-2-(2-methylpyrrolidin-1-yl)pyrimidin-4-yl]-4-(3-chloropyridin-2-yl)piperazin-2-one], for which the IC50 was no more than 1000 nM. As to `Cc1cc(-c2cc(N3CCN(c4nccnc4Cl)C[C@H]3C)nc(N3CCCC3)n2)ccc1F` [Example 914, 4-[(2R)-4-(3-chloropyrazin-2-yl)-2-methylpiperazin-1-yl]-6-(4-fluoro-3-methylphenyl)-2-pyrrolidin-1-ylpyrimidine], the IC50 is no more than 1000 nM.

Turning to `O=C1CNCCN1c1nc(-c2ccc(F)c(Cl)c2)cc(N2CCN(c3ncccc3C(F)(F)F)CC2)n1` [Example 884, 1-(4-(3-chloro-4-f1uorophenyl)-6-{4-[3-(trifluoromethyl)pyridin-2-yl]piperazin-1-yl}pyrimidin-2-yl)piperazin-2-one], the IC50 was no more than 1000 nM. With `CC(C)N(C)C1CN(c2nc(-c3ccc(F)c(Cl)c3)cc(N3CCN(c4ncccc4C(F)(F)F)CC3)n2)C1` [Example 811, 1-(4-(3-chloro-4-fluorophenyl)-6-{4-[3-(trifluoromethyl)pyridin-2-yl]piperazin-1-yl}pyrimidin-2-yl)-N-isopropyl-N-methylazetidin-3-amine], the concentration for half-maximal inhibition (IC50) was no more than 1000 nM.

Still in this test, the particulars now being: determined as described in Example 6 (calcium mobilization, antagonist activity); Table II.
For `Cc1cc(-c2cc(N3CCN(c4ncccc4C(F)(F)F)CC3)nc(N3C(C)C=CC3C)n2)ccc1F` (stereo not shown) [Example 739, 2-(2,5-dimethyl-2,5-dihydro-1H-pyrrol-1-yl)-4-(4-fluoro-3-methylphenyl)-6-{4-[3-(trifluoromethyl)pyridin-2-yl]piperazin-1-yl}pyrimidine], the IC50 was no more than 1000 nM. Same read-out and setting: as for `CCC(C)N(C)c1nc(-c2ccc(F)c(C)c2)cc(N2CCN(c3ncccc3C(F)(F)F)CC2)n1` (stereo not shown) [Example 757, N-(sec-butyl)-4-(4-fluoro-3-methylphenyl)-N-methyl-6-{4-[3-(trifluoromethyl)pyridin-2-yl]piperazin-1-yl}pyrimidin-2-amine], the figure is no more than 1000 nM. Same read-out and setting: as for `CCN(CC)c1nc(-c2ccc(F)c(Cl)c2)cc(N2CCN(c3ncccc3C(F)(F)F)CC2)n1` [Example 573, 4-(3-chloro-4-fluorophenyl)-N,N-diethyl-6-{4-[3-(trifluoromethyl)pyridin-2-yl]piperazin-1-yl}pyrimidin-2-amine], the figure is no more than 1000 nM; as for `CC1CCCN1c1nc(-c2ccc(F)c(Cl)c2)cc(N2CCN(c3ncccc3Cl)C[C@H]2C)n1` (stereo partly drawn) [Example 732, 4-(3-chloro-4-fluorophenyl)-6-[(2R)-4-(3-chloropyridin-2-yl)-2-methylpiperazin-1-yl]-2-(2-methylpyrrolidin-1-yl)pyrimidine], no more than 1000 nM; as for `Fc1ccc(-c2cc(N3CCN(c4ncccc4C(F)(F)F)CC3)nc(-c3ncco3)n2)cc1Cl` [Example 635, 4-(3-chloro-4-fluorophenyl)-2-(1,3-oxazol-2-yl)-6-{4-[3-(trifluoromethyl)pyridin-2-yl]piperazin-1-yl}pyrimidine], no more than 1000 nM. `Cc1cc(-c2cc(N3CCN(c4ncccc4C(F)(F)F)CC3)nc(-c3nccn3C(C)C)n2)ccc1F` [Example 684, 4-(4-fluoro-3-methylphenyl)-2-(1-isopropyl-1H-imidazol-2-yl)-6-{4-[3-(trifluoromethyl)pyridin-2-yl]piperazin-1-yl}pyrimidine]: the IC50 is no more than 1000 nM. The same measure, in the same setting: the value for `CC1CCCCN1c1nc(-c2ccc(F)c(F)c2)cc(N2CCN(c3ncccc3Cl)C[C@H]2C)n1` (stereo partly drawn) [Example 771, 4-[(2R)-4-(3-chloropyridin-2-yl)-2-methylpiperazin-1-yl]-6-(3,4-difluorophenyl)-2-(2-methylpiperidin-1-yl)pyrimidine] was no more than 1000 nM.
